Target: T1, recombinant CYP11B2 (Homo sapiens, UniProt P19099)
T1 sequence (P19099 25-503): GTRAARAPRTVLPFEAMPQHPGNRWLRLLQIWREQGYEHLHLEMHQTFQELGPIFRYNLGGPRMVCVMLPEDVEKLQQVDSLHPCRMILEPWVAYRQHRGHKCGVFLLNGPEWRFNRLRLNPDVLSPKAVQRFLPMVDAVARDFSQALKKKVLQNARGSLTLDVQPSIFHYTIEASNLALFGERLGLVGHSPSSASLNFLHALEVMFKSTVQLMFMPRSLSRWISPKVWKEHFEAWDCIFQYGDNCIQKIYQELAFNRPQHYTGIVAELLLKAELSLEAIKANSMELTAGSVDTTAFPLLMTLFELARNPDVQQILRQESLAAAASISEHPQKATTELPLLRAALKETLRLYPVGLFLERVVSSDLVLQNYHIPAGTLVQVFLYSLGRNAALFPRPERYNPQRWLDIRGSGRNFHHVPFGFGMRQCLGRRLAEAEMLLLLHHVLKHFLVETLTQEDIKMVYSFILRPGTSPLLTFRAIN
Test: Inhibition of CYP11B2 activity in a reconstructed enzyme system (HPLC with UV detector)
Format: biochemical
Details: compounds 1_xx; test compound final concentration ≤2 μM; corticosterone substrate; 30 minutes at 37° C.; read-out: Level of CYP11B2 activity inhibition
Protocol: The authors of the present invention investigated the activity of the compounds according to the invention as inhibitors of CYP11 B2 when analyzed in a reconstructed system containing 0.5 μm recombinant CYP1 1B2, 0.3 μm human adrenodoxin reductase, 2 μm human adrenodoxin, 100 μm corticosterone as a control reaction to detect the formation of a product with using an HPLC system with a UV detector. The test compound is added to the reaction mixture to a final concentration of ≤2 μM. The concentrated protein mixture was diluted with buffer to a final volume of 0.5 ml, pre-incubated for 10 min at 37° C., followed by the addition of the substrate. Reactions are initiated by adding NADPH (nicotinamide adenine dinucleotide phosphate) to a final concentration of 0.25 mM with a regenerating system (glucose-6-phosphate and glucose-6-phosphate dehydrogenase) in 25 mM potassium phosphate buffer, pH 7.4, containing 0.1 mM DTT (dithiothreitol), 0.1% Tween-20.4 mM MgCl2 and incubated at 37° C. After 30 minutes of incubation, the reaction is stopped by adding 5 ml of dichloromethane. The organic phase is isolated by centrifugation, evaporation, dissolution in ethanol and transferred to a vial for HPLC studies. A C18 Luna 100 Å 250×4, 6 mm column was used on an Agilent Technologies 1200 series instrument (USA) with ethanol as the mobile phase.
Activity (a) is calculated as the amount of product in nmol per minute per 1 nmol of CYP.
where k is the correction factor (k=1 is used as the molar extinction coefficients of steroid substrates and products similar at a detection wavelength of 254 nm), As is the peak area of the substrate, cs is the concentration of the substrate, Ap is the peak area of the product, ce is the concentration of CYP (cytochrome P450), t is the reaction time.
The level of inhibition of CYP11 B2 activity is expressed as a percentage, where 0% is defined as no inhibition in reactions without test compound and 100% is absolute inhibition by test compound.

Row | inhibition at 2 µM [%] | SMILES
1 | 20 to 100 | CN(C)c1c(F)cc(S(=O)(=O)N2CCc3c(-c4ccccn4)cncc32)cc1F [Compound 1_15, 2,6-difluoro-N,N-dimethyl-4-((4-(pyridin-2-yl)-2,3-dihydro-1H-pyrrolo[2,3-c]pyridin-1-yl)sulfonyl)aniline]
2 | 50 to 100 | CN1CCC(Nc2c(F)cc(S(=O)(=O)n3ccc4c(-c5ccccn5)cncc43)cc2F)CC1 [Compound 1_21, N-(2,6-difluoro-4-((4-(pyridin-2-yl)-1H-pyrrolo[2,3-c]pyridin-1-yl)sulfonyl)phenyl)-1-methylpiperidin-4-amine]
3 | 50 to 100 | CN(C)c1c(F)cc(S(=O)(=O)n2ccc3c(-c4ccccn4)cncc32)cc1F [Compound 1_09, 2,6-difluoro-N,N-dimethyl-4-((4-(pyridin-2-yl)-1H-pyrrolo[2,3-c]pyridin-1-yl)sulfonyl)aniline]
4 | 50 to 100 | Cc1csc(N(C)c2c(F)cc(S(=O)(=O)n3ccc4c(-c5ccccn5)cncc43)cc2F)n1 [Compound 1_20, N-(2,6-difluoro-4-((4-(pyridin-2-yl)-1H-pyrrolo[2,3-c]pyridin-1-yl)sulfonyl)phenyl)-N,4-dimethylthiazol-2-amine]
5 | 50 to 100 | CC1CN(c2c(F)cc(S(=O)(=O)n3ccc4c(-c5ccccn5)cncc43)cc2F)C1 [Compound 1_19, 1-((3,5-difluoro-4-(3-methylazetidin-1-yl)phenyl)sulfonyl)-4-(pyridin-2-yl)-1H-pyrrolo[2,3-c]pyridine]
6 | 50 to 100 | O=S(=O)(c1cc(F)c(OCC2CC2)c(F)c1)n1ccc2c(-c3ccccn3)cncc21 [Compound 1_07, 1-((4-(cyclopropylmethoxy)-3,5-difluorophenyl)sulfonyl)-4-(pyridin-2-yl)-1H-pyrrolo[2,3-c]pyridine]
7 | 50 to 100 | COc1c(F)cc(S(=O)(=O)n2ccc3c(-c4ccccn4)cncc32)cc1F [Compound 1_18, 1-((3,5-difluoro-4-methoxyphenyl)sulfonyl)-4-(pyridin-2-yl)-1H-pyrrolo[2,3-c]pyridine]
8 | 50 to 100 | O=S(=O)(c1cc(F)c(O)c(F)c1)N1CCc2c(-c3ccccn3)cncc21 [Compound 1_16, 2,6-difluoro-4-((4-(pyridin-2-yl)-2,3-dehydro-H-pyrrolo[2,3-c]pyridin-1-yl)sulfonyl)phenol]

Same assay, conditions: compounds 2_xx, 3_xx, 4_01; test compound final concentration ≤2 μM; corticosterone substrate; 30 minutes at 37° C.; read-out: Level of CYP11B2 activity inhibition

Row | SMILES | inhibition at 2 µM [%]
9 | O=S(=O)(c1cc(F)c(N2CCNCC2)c(F)c1)n1ccc2c(-c3ccccn3)cncc21 [Compound 3_01, 1-((3,5-difluoro-4-(piperazin-1-yl)phenyl)sulfonyl)-4-(pyridin-2-yl)-1H-pyrrolo[2,3-c]pyridine] | 20 to 100
10 | CN1CCN(c2c(F)cc(S(=O)(=O)n3ccc4c(-c5cnc(C#N)cn5)cncc43)cc2F)CC1 [Compound 3_05, 5-(1-((3,5-difluoro-4-(4-methylpiperazin-1-yl)phenyl)sulfonyl)-1H-pyrrolo[2,3-c]pyridin-4-yl)pyrazine-2-carbonitrile] | 35 to 100
11 | CNc1ccc(-c2cncc3c2ccn3S(=O)(=O)c2cc(F)c(N3CCN(C)CC3)c(F)c2)nc1 [Compound 3_02, 6-(1-((3,5-difluoro-4-(4-methylpiperazin-1-yl)phenyl)sulfonyl)-1H-pyrrolo[2,3-c]pyridin-4-yl)-N-methylpyridin-3-amine] | 35 to 100

The next lines start with the values.

Row | inhibition at 2 µM [%] | SMILES
12 | 35 to 100 | CN1CC2CN(c3c(F)cc(S(=O)(=O)n4ccc5c(-c6ccc(C#N)nc6)cncc54)cc3F)CC2C1 (stereo not shown) [Compound 3_24, 5-(1-((3,5-difluoro-4-(5-methylhexahydropyrrolo[3,4-c]pyrrol-2(1H)-yl)phenyl)sulfonyl)-1H-pyrrolo[2,3-c]pyridin-4-yl)picolinonitrile]
13 | 20 to 100 | O=S(=O)(c1cc(F)c(N2CCN(C3CC3)CC2)c(F)c1)n1ccc2c(-c3ccccn3)cncc21 [Compound 3_12, 1-((4-(4-cyclopropylpiperazin-1-yl)-3,5-difluorophenyl)sulfonyl)-4-(pyridin-2-yl)-1H-pyrrolo[2,3-c]pyridine]
14 | 35 to 100 | O=S(=O)(c1cc(F)c(N2CC3CC2CN3)c(F)c1)n1ccc2c(-c3ccccn3)cncc21 (stereo not shown) [Compound 3_25, 1-((4-(2,5-diazabicyclo[2.2.1]heptan-2-yl)-3,5-difluorophenyl)sulfonyl)-4-(pyridin-2-yl)-1H-pyrrolo[2,3-c]pyridine]
15 | 35 to 100 | CN1CC2CN(c3c(F)cc(S(=O)(=O)n4ccc5c(-c6cnc(C#N)cn6)cncc54)cc3F)CC2C1 (stereo not shown) [Compound 3_23, 5-(1-((3,5-difluoro-4-(5-methylhexahydropyrrolo[3,4-c]pyrrol-2(1H)-yl)phenyl)sulfonyl)-1H-pyrrolo[2,3-c]pyridin-4-yl)pyrazine-2-carbonitrile]
16 | 35 to 100 | CN1CCN(c2c(F)cc(S(=O)(=O)n3ccc4c(-c5ccc(C#N)nn5)cncc43)cc2F)CC1 [Compound 3_10, 6-(1-((3,5-difluoro-4-(4-methylpiperazin-1-yl)phenyl)sulfonyl)-1H-pyrrolo[2,3-c]pyridin-4-yl)pyridazine-3-carbonitrile]

— patent US20260258036A1, “INHIBITORS OF HUMAN ALDOSTERONE SYNTHASE (CYP11B2)” («TARGET MEDICALS» LIMITED LIABILITY COMPANY, priority 2022, published 2026)
